Read-outs that look alike come from different tables or passages of the source. Marks after values point to notes of the source that are not given here.
Experiments:
Mouse NTCP = molecular target: T1, Mouse NTCP (Mus musculus, UniProt O08705); test: 3H-taurocholic acid uptake in mouse NTCP-overexpressing cells; assay type: cell-based; settings: 3H-taurocholic acid transport
T1 construct: expressed in transfected cells; kept under geneticin selection
T1 sequence (O08705 1-362): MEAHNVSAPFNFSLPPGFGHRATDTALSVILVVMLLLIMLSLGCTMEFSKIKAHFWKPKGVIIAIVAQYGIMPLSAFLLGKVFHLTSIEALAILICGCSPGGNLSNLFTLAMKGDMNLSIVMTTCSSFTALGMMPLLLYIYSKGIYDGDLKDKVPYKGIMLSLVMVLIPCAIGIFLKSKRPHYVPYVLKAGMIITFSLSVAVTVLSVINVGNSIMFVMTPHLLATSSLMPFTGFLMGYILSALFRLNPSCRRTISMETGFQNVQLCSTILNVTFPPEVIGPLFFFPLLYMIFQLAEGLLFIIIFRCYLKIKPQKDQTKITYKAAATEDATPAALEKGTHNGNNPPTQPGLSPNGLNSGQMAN
Procedure: 20,000 cells (Human & Mouse NTCP-overexpressing cells) were seeded in 96-well plate in 100 μL MEM-alpha medium supplemented with 10% FBS containing geneticin (1 mg/mL) and incubated at 37° C. in 5% CO2 for 24 hrs. After incubation, media was decanted from the wells and cells were washed two times with 250 μL of basal MEM-alpha medium (FBS-free). After each wash, plates were tapped against a paper towel to ensure maximum removal of residual media. For Human NTCP (hNTCP), incubation mix was prepared by adding test inhibitor dilutions (3-fold serial dilution in DMSO, 10 concentrations) in MEM-alpha (without FBS) containing 0.3 μM ^3H-taurocholic acid and 7.5 μM cold taurocholic acid (maintaining 0.2% final DMSO concentration). […]
The plates were tapped against a paper towel after every wash to ensure maximum removal of blocking buffer. 100 μL of MicroScint-20 was added to the wells and kept overnight at room temperature before reading the plates in MicroBeta2 liquid Scintillation Counter from PerkinElmer under 3H Test for I/L-BAT protocol (set at 120 seconds reading time per well, with normal plate orientation).
Percentage inhibitions were calculated with respect to the assay controls. […]

[1] = test system: HBV (HepG2 AD38 genotype D); test: HBV infection of primary human hepatocytes, extracellular HBV DNA by qPCR; assay type: cell-based, hepatitis B virus; settings: for EC50: Hepatitis B virus
HBV genotype C [2] = test: Serum HBV DNA in HBV-infected PXB mice; assay type: in vivo, hepatitis B virus; settings: for serum HBV DNA levels: HBV-infected PXB mice, group mean, assay limit 4×10^4 copies/mL serum
Procedure: (§1) Target volume of blood was collected from all surviving animals under isoflurane anesthesia via the retro-orbital plexus/sinus using Intramedic™ Polyethylene Tubing at each time point. Two microliters (2 μL) from the collected blood were used for human albumin measurements. The remaining blood was centrifuged to separate serum to be used for analyzing the indicated biomarkers. Blood samples were collected according to Table 8.
(§2) The individual blood samples of the animals were left at room temperature for at least 5 minutes to coagulate and then centrifuged at 13200×g, 4° C. for 3 minutes to obtain serum. The serum was divided into separate labeled microtubes and stored at −80° C. until analysis.
Real-time PCR detection was used to measure the serum HBV DNA concentration using the KUBIX HBV qPCR Kit (KUBIX Inc.) and CFX96 Touch™ Real-Time PCR Detection System (Bio-Rad Laboratories, Inc., Hercules, Calif., USA). Ten microliters (10 μL) of the HBV 2×PCR Solution were added into 10 μL of the heated sample. The initial activation was conducted at 95° C. for 2 minutes. Subsequent PCR amplification consisted of 45 cycles of denaturation at 95° C. for 5 seconds and annealing and extension at 54° C. for 30 seconds per cycle in a CFX96 Touch™ Real-Time PCR Detection System. The average serum HBV DNA level was calculated from the values of the two separate wells.
The lowest quantification limit of this assay was 4×10^4 copies/mL serum.

HBV genotype C [3] = test: Serum HBeAg in HBV-infected PXB mice; assay type: in vivo, hepatitis B virus; settings: 10 mg/kg and 30 mg/kg, Day 14
Procedure: as §1, §2
Serum HBeAg concentration was determined by SRL, Inc. based on a Chemiluminescent Enzyme Immuno Assay (CLEIA) developed by Fujirebio ([…] HBeAg, […]® Prestoll). The dilution factor was 30 and 10, and the measurement range of this assay was between 0.1 and 1590 C.O.I. For the 30-fold diluted samples, the measurement range was adjusted to be between 3 and 47700 C.O.I. And for the 10-fold diluted samples, the measurement range was adjusted to be between 1 and 15900 C.O.I. The lowest quantification limit of this assay was 3.0 C.O.I.

What does the source list for `CCCCC1CN(c2ccccc2)c2cc(SC)c(O/C=C(\F)C(=O)O)cc2S(=O)(=O)N1C` (stereo not shown) [Compound 1, (Z)-3-((3-butyl-2-methyl-7-(methylthio)-1,1-dioxido-5-phenyl-2,3,4,5-tetrahydro-1,2,5-benzothiadiazepin-8-yl)oxy)-2-fluoroacrylic acid]?
IC50 (Mouse NTCP): 1.82 ± 0.25 nM; EC50 ([1]; HepG2, 18 h, Study #01, compound given 18 h post-infection): > 1 nM; EC50 ([1]; HepG2, Study #01, #02 and #03 merged, four parameter regression, read-out: EC50 from fitted curve of merged data): 4.9 nM; EC50 ([1]; HepG2, Study #01, compound given 18 h prior to infection, PHH, HBV DNA, read-out: EC50): 4 nM; EC50 ([1]; HepG2, Study #02, PHH, read-out: EC50): < 6.3 nM; EC50 ([1]; HepG2, Study #03, PHH, read-out: EC50): 11 nM; antiviral activity/potency when given 18 h post-infection ([1]; Study #01): lost; Max inhibition ([1]; Study #01, 18 h prior to infection): 97%; Max inhibition ([1]; Study #02): 88%; inhibition at the lowest concentration tested ([1]; Study #02, 6.25 nmol/L): 58%; Max inhibition ([1]; Study #03): 63%; serum HBV DNA compared to controls (HBV genotype C [2]; 30 mg/kg, Day 7): lower; serum HBV DNA levels (HBV genotype C [2]; 10 mg/kg p.o. once daily Day 0-14, Day 0 (pre-dose)): 4.0 × 10^4; serum HBV DNA levels (HBV genotype C [2]; 10 mg/kg p.o. once daily Day 0-14, Day 7): 1.4 × 10^5; serum HBV DNA levels (HBV genotype C [2]; 10 mg/kg p.o. once daily Day 0-14, Day 14): 8.5 × 10^5; serum HBV DNA levels (HBV genotype C [2]; 10 mg/kg p.o. once daily Day 0-14, Day 21): 1.3 × 10^6; serum HBV DNA levels (HBV genotype C [2]; 10 mg/kg p.o. once daily Day 0-14, Day 28): 8.5 × 10^6; serum HBV DNA levels (HBV genotype C [2]; 10 mg/kg p.o. once daily Day 0-14, Day 35): 2.7 × 10^7*; serum HBV DNA levels (HBV genotype C [2]; 10 mg/kg p.o. once daily Day 0-14, Day 42): 1.2 × 10^8*; serum HBV DNA levels (HBV genotype C [2]; 30 mg/kg p.o. once daily Day 0-14, Day 0 (pre-dose)): 4.0 × 10^4; serum HBV DNA levels (HBV genotype C [2]; 30 mg/kg p.o. once daily Day 0-14, Day 7): 6.1 × 10^4; serum HBV DNA levels (HBV genotype C [2]; 30 mg/kg p.o. once daily Day 0-14, Day 14): 1.9 × 10^5; serum HBV DNA levels (HBV genotype C [2]; 30 mg/kg p.o. once daily Day 0-14, Day 21): 3.1 × 10^5; serum HBV DNA levels (HBV genotype C [2]; 30 mg/kg p.o. once daily Day 0-14, Day 28): 2.7 × 10^6; serum HBV DNA levels (HBV genotype C [2]; 30 mg/kg p.o. once daily Day 0-14, Day 35): 1.1 × 10^7; serum HBV DNA levels (HBV genotype C [2]; 30 mg/kg p.o. once daily Day 0-14, Day 42): 5.4 × 10^7; effect against HBV genotype C infection in PXB-mice (HBV genotype C [2]; oral dosing before HBV infection): prophylactic effects; serum HBeAg compared to controls (HBV genotype C [3]): lower
